Measurements taken from US20060134048A1, “Reduction of hair growth” (priority 2004, published 2006).

Legend:
Human hair follicles = assay: Human hair follicle growth assay; format: cell-based; conditions: 24 hours pre-incubation with 0.1 mM caffeine, then laser 0.75W for 100 msec; hair shaft growth after four to six days
Method: Human Hair Follicle Growth Assay:
Human hair follicles in growth phase (anagen) were isolated from face-lift tissue (obtained from plastic surgeons) under dissecting scope using a scalpel and watchmakers forceps. The skin was sliced into thin strips exposing 2-3 rows of follicles that could readily be dissected. Follicles were placed into 0.5 ml William's E medium (Life Technologies, Gaithersburg, Md.) supplemented with 2 mM L-glutamine, 10 μg/ml insulin, 10 ng/ml hydrocortisone, 100 units of penicillin, 0.1 mg/ml streptomycin and 0.25 μg/ml amphotericin B. The follicles were incubated in 24-well plates (1 follicle/well) at 37° C. in an atmosphere of 5% CO2 and 95% air. The HSP inhibitor or compound that promotes apoptosis is dissolved into dimethyl sulfoxide as 100-fold stock solution. […] The length of hair follicle was assessed using an image analysis software system. The growth of hair fiber was calculated by the subtracting the follicle length on day 0 from that determined on day 7.
Hair follicles were pre-incubated for 24 hours with 0.1 mM concentration of caffeine, and then some of the follicles were laser treated at 0.75W for 100 msec using a Coherent diode laser system. The length of each follicle was measured and the follicles then were placed in a 37° C. incubator for four to six days. Following incubation the hair shaft growth was measured.

hamster flank organs = assay: Golden Syrian Hamster assay; format: in vivo, Golden Syrian hamsters
Method: To evaluate the effectiveness of a composition in reducing hair growth (including when used in conjunction with heating), the flank organs of each of a group of hamsters are depilated by applying a thioglycolate based chemical depilatory (Surgex) and/or shaved. To one organ of each animal 10 μl. of vehicle alone once a day is applied, while to the other organ of each animal an equal amount of vehicle containing the HSP inhibitor or compound that promotes apoptosis under evaluation is applied. After three weeks of topical applications (one application per day for five days a week), with heating at a selected time(s) if the composition is used in conjunction with heating) the flank organs are shaved and the amount of recovered hair (hair mass) from each is weighed. Percent-reduction of hair growth is calculated by subtracting the hair mass (mg) value of the test compound treated side from the hair mass value of the vehicle treated side; the delta value obtained is then divided by the hair mass value of the vehicle treated side, and the resultant number is multiplied by 100. A composition including a vehicle 15% DMSO, 65% ethanol, 10% propylene glycol, and 10% di-propylene glycol and 5% quercetin by weight was tested in the Golden Syrian Hamster assay. […]

Compound: Cn1c(=O)c2c(ncn2C)n(C)c1=O [caffeine]
- reduction in hair growth compared with the control group (Human hair follicles): significant reduction in hair growth

Compound: O=c1c(O)c(-c2ccc(O)c(O)c2)oc2cc(O)cc(O)c12 [quercetin]
- hair growth inhibition (hamster flank organs; 5% quercetin for four days prior to 15W/0.75 sec laser, compared to flank organs given the same laser pulse without quercetin pretreatment): 36%
- hair growth inhibition (hamster flank organs; 5% quercetin topical only, three weeks, compared to vehicle control flank organs): 15%
